Where a name gives a salt, the structure may show the parent alone.
Columns and labels:
[1] = system: rheumatoid arthritis DBA-1J mouse model; assay: Arthritis index in collagen-induced rheumatoid arthritis DBA-1J mouse model; type: in vivo
Description: (§1) DBA-1J mice were purchased from Central Lab. Animal Inc. Bovine Type II collagen (2 mg/mL) was emulsified in 4 mg/mL of Complete Freund's adjuvant at 1:1, and then injected subcutaneously to the DBA-1J mice at the base of the tail with 100 μL/head to induce arthritis first. Then, after 3 weeks, Bovine Type II collagen (2 mg/mL) was emulsified in Incomplete Freund's adjuvant at 1:1 and injected subcutaneously to the DBA-1J mice at the base of the tail with 100 μL/head to prepare rheumatoid arthritis animal models.
(§2) As a normal control group, 0.5% methyl cellulose (MC) was orally administered to healthy DBA-1J mice, and as a comparative control group, 0.5% MC was orally administered to the prepared rheumatoid arthritis mouse models, daily for 2 weeks. Methotrexate (MTX, 2 mg/kg/2 day), hydroxychloroquine (HCQ, 80 mg/kg/day), which are commercially available therapeutic agents for rheumatoid arthritis, and hydroflumethiazide (5 mg/kg/day or 20 mg/kg/day) were orally administered daily for 2 weeks to the prepared rheumatoid arthritis mouse models, respectively.
[…] Reference: 0, No edema or swelling: 1, Mild edema and redness confined to the joint: 2, Mild edema and redness from the joint to carpal bone and tarsal bone: 3, Moderate edema and redness from the joint to carpal bone and tarsal bone: 4, Overall edema and redness and joint stiffness: 5. In the arthritis index, the highest score was set to 16 points by summing up the four limb scores. In addition, the size of the lower extremity edema was measured using a micrometer on day 14 after each drug was administered in each of the control groups and experimental groups.

[2] = system: rheumatoid arthritis DBA-1J mouse model; assay: Size of lower extremity edema  in rheumatoid arthritis DBA-1J mouse model; type: in vivo; design: Size of lower extremity edema, Right Feet / Size of lower extremity edema, Left Feet: unit not given here
Description: as §1, §2
Arthritis indices were measured on day 9 and 14 after the administration of each drug in each of the control groups and experimental groups on the basis of the following criteria. Reference: 0, No edema or swelling: 1, Mild edema and redness confined to the joint: 2, Mild edema and redness from the joint to carpal bone and tarsal bone: 3, Moderate edema and redness from the joint to carpal bone and tarsal bone: 4, Overall edema and redness and joint stiffness: 5. In the arthritis index, the highest score was set to 16 points by summing up the four limb scores. […]

[3] = system: rheumatoid arthritis DBA-1J mouse model; assay: Histopathological quantification of ankle regions (H&E, safranin-O) in rheumatoid arthritis DBA-1J mouse model; type: in vivo
Description: as §1, §2
On day 14 of administration, the mice in each of the control groups and experimental groups were sacrificed, and then joint staining photographs were taken through the following process. The ankle areas of the sacrificed mice were subjected to general tissue treatment processes such as demineralization, trimming, dehydration, paraffin embedding, and microtome cutting to prepare specimens for histopathological examination. Then, Hematoxylin & Eosin (H&E) and safranin-O stainings were performed, and histopathological changes were observed using an optical microscope (FIG. 5).
In addition, the degrees of synovium proliferation, bone destruction, and cartilage damage were quantified, and the results are shown in Table 5 below.

RAW 264.7 = assay: MTT assay cell viability; type: cell-based; details: for Cytotoxicity (MTT assay): concentrations of Table 1
TNF-α = TNF-α expression level by ELISA in LPS-induced RAW 264.7 cells; type: cell-based; details: for TNF-α: LPS 10 ng/ml-induced RAW 264.7, ELISA
Description: In addition, in order to confirm an effect of inhibiting the TNF-α expression of hydroflumethiazide in induced inflammatory cells, an experiment was performed as follows. RAW 264.7 cells were treated with DMSO at a concentration of 0.01% (v/v) as an untreated control group, and the cells were treated with LPS at a concentration of 10 ng/ml as a control group to induce an inflammatory response. […] Then, the expression level of TNF-α was measured and compared through the ELISA method in the groups treated with respective drugs.

[4] = system: rheumatoid arthritis DBA-1J mouse model; assay: Histopathological quantification of ankle regions (H&E, safranin-O) in rheumatoid arthritis DBA-1J mouse model; type: in vivo; details: oral, FIG. 6
[5] = Mus musculus, RAW264.7, TNF-α, LPS-induced RAW 264.7, 20 uM

CCN(CCO)CCCC(C)Nc1ccnc2cc(Cl)ccc12 (stereo not drawn) [HCQ, hydroxychloroquine]
Arthritis index ([1]; Day 0, G4, 80 mg/kg/day oral): 2.3 ± 1.4 | Arthritis index ([1]; Day 2, G4, 80 mg/kg/day oral): 4.7 ± 1.2 | Arthritis index ([1]; Day 4, G4, 80 mg/kg/day oral): 6 ± 1.3 | Arthritis index ([1]; Day 7, G4, 80 mg/kg/day oral): 7 ± 1.3 | Arthritis index ([1]; Day 9, G4, 80 mg/kg/day oral): 7.5 ± 1.2 | Arthritis index ([1]; Day 11, G4, 80 mg/kg/day oral): 7.8 ± 1.2 | Arthritis index ([1]; Day 14, G4, 80 mg/kg/day oral): 8.5 ± 1.5 | Size of lower extremity edema, Left Feet ([2]; Day 0, G4, 80 mg/kg/day oral): 0.12 ± 0.02 | Size of lower extremity edema, Right Feet ([2]; Day 0, G4, 80 mg/kg/day oral): 0.11 ± 0.02 | Size of lower extremity edema, Left Feet ([2]; Day 14, G4, 80 mg/kg/day oral): 0.16 ± 0.04 | Size of lower extremity edema, Right Feet ([2]; Day 14, G4, 80 mg/kg/day oral): 0.15 ± 0.03 | Bone destruction ([3]; day 14, G4, 80 mg/kg/day oral): 2.3 ± 0.5 | Cartilage damage ([3]; day 14, G4, 80 mg/kg/day oral): 2 ± 0.6 | Synovium proliferation ([3]; day 14, G4, 80 mg/kg/day oral): 3 ± 0.0 | Total (synovium proliferation, cartilage damage, bone destruction) ([3]; day 14, G4, 80 mg/kg/day oral): 7.3 ± 1.0

NS(=O)(=O)c1cc2c(cc1C(F)(F)F)NCNS2(=O)=O [Hydroflumethiazide, hydroflumethiazide]
Cytotoxicity (MTT assay) (RAW 264.7): cytotoxicity was not exhibited | Viability (RAW 264.7; treatment concentration 0.1 uM): 106.35% | Viability (RAW 264.7; treatment concentration 1 uM): 101.82% | Viability (RAW 264.7; treatment concentration 10 uM): 105.73% | Viability (RAW 264.7; treatment concentration 20 uM): 101.11% | TNF-α (TNF-α; 0.1 uM): 1466.48 pg/mL | TNF-α (TNF-α; 1 uM): 1289.62 pg/mL | TNF-α (TNF-α; 10 uM): 837.44 pg/mL | TNF-α (TNF-α; 20 uM): 625.65 pg/mL | inhibition at 0.1 µM (TNF-α; Mus musculus, RAW264.7, TNF-α, LPS-induced RAW 264.7, 0.1 uM): 20.8% | inhibition at 1 µM (TNF-α; Mus musculus, RAW264.7, TNF-α, LPS-induced RAW 264.7, 1 uM): 30.4% | inhibition at 10 µM (TNF-α; Mus musculus, RAW264.7, TNF-α, LPS-induced RAW 264.7, 10 uM): 54.8% | inhibition at 20 µM (TNF-α; [5]): 66.2% | Decrease of expression level of TNF-α (TNF-α; inflammatory response-induced RAW 264.7, at least 0.1 μM): at least 20% | Expression level of TNF-α compared to the group treated with PS1145 (TNF-α; inflammatory response-induced RAW 264.7, at least 1 μM): further decreased compared to the group treated with PS1145 | Decrease of expression of TNF-α (TNF-α; inflammatory response-induced RAW 264.7, at least 10 μM): at least 50% | Arthritis index compared to the MTX-administered group ([1]; 20 mg/kg/day, day 14): decreased at a similar level to the MTX-administered group | Arthritis index ([1]; Day 0, G5, 5 mg/kg/day oral): 2.3 ± 1 | Arthritis index ([1]; Day 0, G6, 20 mg/kg/day oral): 2.3 ± 1 | Arthritis index ([1]; Day 2, G5, 5 mg/kg/day oral): 4.2 ± 1.6 | Arthritis index ([1]; Day 2, G6, 20 mg/kg/day oral): 4 ± 1.7 | Arthritis index ([1]; Day 4, G5, 5 mg/kg/day oral): 5.8 ± 1.8 | Arthritis index ([1]; Day 4, G6, 20 mg/kg/day oral): 5 ± 1.4 | Arthritis index ([1]; Day 7, G5, 5 mg/kg/day oral): 6 ± 2.1 | Arthritis index ([1]; Day 7, G6, 20 mg/kg/day oral): 5.7 ± 1.5 | Arthritis index ([1]; Day 9, G5, 5 mg/kg/day oral): 6.7 ± 2.0 | Arthritis index ([1]; Day 9, G6, 20 mg/kg/day oral): 6.2 ± 1.7 | Arthritis index ([1]; Day 11, G5, 5 mg/kg/day oral): 7.2 ± 1.7 | Arthritis index ([1]; Day 11, G6, 20 mg/kg/day oral): 6.8 ± 1.6 | Arthritis index ([1]; Day 14, G5, 5 mg/kg/day oral): 8 ± 2.5 | Arthritis index ([1]; Day 14, G6, 20 mg/kg/day oral): 7.3 ± 2.3 | Arthritis index compared to the HCQ-administered group ([1]; from day 9 of the administration): significantly decreased | Size of the lower extremity edema compared to the MTX-administered group ([2]; 20 mg/kg/day, day 14): decreased at a similar level to the MTX-administered group | Size of lower extremity edema, Left Feet ([2]; Day 0, G5, 5 mg/kg/day oral): 0.09 ± 0.01 | Size of lower extremity edema, Right Feet ([2]; Day 0, G5, 5 mg/kg/day oral): 0.11 ± 0.03 | Size of lower extremity edema, Left Feet ([2]; Day 0, G6, 20 mg/kg/day oral): 0.11 ± 0.03 | Size of lower extremity edema, Right Feet ([2]; Day 0, G6, 20 mg/kg/day oral): 0.1 ± 0.01 | Size of lower extremity edema, Left Feet ([2]; Day 14, G5, 5 mg/kg/day oral): 0.14 ± 0.02 | Size of lower extremity edema, Right Feet ([2]; Day 14, G5, 5 mg/kg/day oral): 0.15 ± 0.04 | Size of lower extremity edema, Left Feet ([2]; Day 14, G6, 20 mg/kg/day oral): 0.15 ± 0.03 | Size of lower extremity edema, Right Feet ([2]; Day 14, G6, 20 mg/kg/day oral): 0.15 ± 0.03 | Bone destruction ([3]; day 14, G5, 5 mg/kg/day oral): 1.8 ± 1.0 | Cartilage damage ([3]; day 14, G5, 5 mg/kg/day oral): 2 ± 0.9 | Synovium proliferation ([3]; day 14, G5, 5 mg/kg/day oral): 3 ± 0.0 | Total (synovium proliferation, cartilage damage, bone destruction) ([3]; day 14, G5, 5 mg/kg/day oral): 6.8 ± 1.8 | Bone destruction ([3]; day 14, G6, 20 mg/kg/day oral): 2.5 ± 0.5 ^ | Cartilage damage ([3]; day 14, G6, 20 mg/kg/day oral): 1.7 ± 0.8 | Synovium proliferation ([3]; day 14, G6, 20 mg/kg/day oral): 2.2 ± 1.2 | Total (synovium proliferation, cartilage damage, bone destruction) ([3]; day 14, G6, 20 mg/kg/day oral): 6.3 ± 1.5 | Anti-arthritic effect compared to HCQ [4]: superior to HCQ

CN(Cc1cnc2nc(N)nc(N)c2n1)c1ccc(C(=O)N[C@@H](CCC(=O)O)C(=O)O)cc1 [MTX, Methotrexate]
Arthritis index ([1]; Day 0, G3, 2 mg/kg/2 day oral): 2.3 ± 1.6 | Arthritis index ([1]; Day 2, G3, 2 mg/kg/2 day oral): 4.2 ± 1.0 | Arthritis index ([1]; Day 4, G3, 2 mg/kg/2 day oral): 5 ± 1.3 | Arthritis index ([1]; Day 7, G3, 2 mg/kg/2 day oral): 5.8 ± 1.3 | Arthritis index ([1]; Day 9, G3, 2 mg/kg/2 day oral): 6.3 ± 1.4 | Arthritis index ([1]; Day 11, G3, 2 mg/kg/2 day oral): 6.7 ± 1.5 | Arthritis index ([1]; Day 14, G3, 2 mg/kg/2 day oral): 7 ± 1.3 | Size of lower extremity edema, Left Feet ([2]; Day 0, G3, 2 mg/kg/2 day oral): 0.11 ± 0.02 | Size of lower extremity edema, Right Feet ([2]; Day 0, G3, 2 mg/kg/2 day oral): 0.1 ± 0.02 | Size of lower extremity edema, Left Feet ([2]; Day 14, G3, 2 mg/kg/2 day oral): 0.12 ± 0.02 | Size of lower extremity edema, Right Feet ([2]; Day 14, G3, 2 mg/kg/2 day oral): 0.15 ± 0.03 | Bone destruction ([3]; day 14, G3, 2 mg/kg/2 day oral): 1.5 ± 0.8 | Cartilage damage ([3]; day 14, G3, 2 mg/kg/2 day oral): 1.3 ± 0.5 | Synovium proliferation ([3]; day 14, G3, 2 mg/kg/2 day oral): 2.5 ± 0.5 | Total (synovium proliferation, cartilage damage, bone destruction) ([3]; day 14, G3, 2 mg/kg/2 day oral): 5.3 ± 1.5

O=C(Nc1cc(Cl)cc2c1[nH]c1cnccc12)c1cccnc1 [PS1145, N-(6-chloro-9H-pyrido[3,4-b]indol-8-yl)-3-pyridinecarboxamide dihydrochloride]
Cytotoxicity (MTT assay) (RAW 264.7): cytotoxicity was not exhibited | Viability (RAW 264.7; treatment concentration 20 uM): 99.16% | TNF-α (TNF-α; 20 uM): 1402.08 pg/mL | inhibition at 20 µM (TNF-α; [5]): 24.3%
